# Test results published in patent US12263156B2, “Use of small molecule inhibitors of the BfrB:Bfd interaction in biofilms” (priority 2020, dated 2025).
# System: iron stored in BfrB in P. aeruginosa PAO1 pellicle cells
# Test: Imaging of iron stored in BfrB in biofilm-embedded cells (native PAGE, Ferene S, densitometry)
# Assay type: cell-based, Pseudomonas aeruginosa
# Conditions: 24 h; KM-5-25 40 μM, KM-5-66 20 μM
# From the text: Recombinant BfrB (BfrBrec) was used as a standard for the electrophoretic mobility of BfrB. The lane corresponding to untreated control was loaded with 0.5× the volume of the lanes loaded with lysates from treated pellicles to account for the ˜2-fold larger number of viable cells in the untreated pellicles. Lanes loaded with treated pellicle lysates show greater accumulation of iron in BfrB relative to untreated cells. […] (A), (C) and (D) show the average of results from 3 biological replicates, p<0.001 is denoted by *** relative to untreated.
# Pellicle biofilms were grown for 48 hours as described above. The pellicles were transferred onto square (2 cm×2 cm) glass coverslips by gently contacting the pellicle with the coverslip. […] Levels of total intracellular iron were determined as reported previously:^23, 86 the cell pellets were treated with 500 μL of freshly prepared digestion reagent (0.6 N HCl, 2.25% (w/v) KMnO4 in water), thoroughly mixed by vortexing, and then incubated at 65° C. for 3.5 hours. […] The iron concentration was measured from the absorbance of the Fe^2+-Ferene S complex (ε593=34.5 mM^−1 cm^−1),^87 normalized by the viable cell counts and reported as Fe atoms per cell. […]
compound,measurement,value
O=C1NC(=O)c2c(NCCCc3cc(O)cc(Cl)c3)cccc21 [KM-5-66],iron in BfrB relative to untreated pellicles (Ferene S band peak areas),~3 fold
O=C1NC(=O)c2c(NCc3cc(Cl)ccc3O)cccc21 [KM-5-25],iron in BfrB relative to untreated pellicles (Ferene S band peak areas),~3 fold
